From patent US20100143999A1, “PROCESS FOR FERMENTIVE PREPARATION OF ALCOHOLS AND RECOVERY OF PRODUCT” (E.I. DU PONT DE NEMOURS AND COMPANY, priority 2008, published 2010)

What was measured:
[1] = system: Saccharomyces cerevisiae (W1362 20A); experiment: Glucose Uptake Index of S. cerevisiae culture with 5% (v/v) ionic liquid; type: cell-based; settings: YPD medium, 30° C., 16 hours after addition
Protocol: After 24 hours the test tube was removed and stored at 4° C.

[2] = Extraction of isobutanol from an aqueous solution by ionic liquid; type: physicochemical; settings: 3 mL aqueous solution about 31 g/L isobutanol, 150 microliters (5 vol %) ionic liquid, overnight equilibration
Protocol: (§1) Ethanol and isobutanol concentration in the solution was measured using HPLC as described above following thorough mixing and overnight equilibration of the contents of the vial.

[3] = Extraction of ethanol from an aqueous solution by ionic liquid; type: physicochemical; settings: 3 mL aqueous solution about 31 g/L ethanol, 150 microliters (5 vol %) ionic liquid, overnight equilibration
Protocol: as §1

[4] = system: Saccharomyces cerevisiae (W1362 20A); experiment: Scale-up fermentation (25 mL broth) with 5 volume percent ionic liquid, HPLC over five hours; type: cell-based; settings: five hour time span, FIG. 2
Protocol: Cultures were again prepared using the same growth conditions as described above except that the total broth volume was 25 mL. The selected ionic liquids were added to a container of each broth in an amount of 5 volume percent. In these experiments, small samples were withdrawn from the broth for HPLC analysis periodically over a five hour time span to get a better idea of the extent of metabolic activity after ionic liquid addition as well as to provide information on glucose consumption and product formation. […] The calculation of GUI was made as described above, and amount of ethanol produced was taken directly from the HPLC data.

Molecule | GUI of Example (Glucose Utilization Index in the presence of ionic liquid phase) [1] | Isobutanol (concentration in the solution after extraction) [2] [mM] | Ethanol (concentration in the solution after extraction) [3] [mM] | ethanol production [4] | glucose uptake [4] | GUI of Example (Glucose Utilization Index in the presence of ionic liquid phase) ([1]; listed as 14)
1-butyl-3-methylimidazolium 1,1,2-trifluoro-2-(perfluoroethoxy)ethanesulfonate [Example 4] | 22.0 | – | – | – | – | –
1-ethyl-3-methylimidazolium bis(trifluoromethylsulfonyl)imide [Example 6] | 76.8 | 389 | 670 | remained robust | remained robust | –
1-hexyl-3-methylimidazolium bis(trifluoromethylsulfonyl)imide [Example 9] | 89.5 | 388 | 678 | remained robust | remained robust | –
CCCCCCn1cc[n+](C)c1.FC(F)(F)C(F)(F)[P-](F)(F)(F)(C(F)(F)C(F)(F)F)C(F)(F)C(F)(F)F [Example 1, 1-hexyl-3-methylimidazolium tris(pentafluoroethyl)trifluorophosphate] | 99.7 | 404 | 680 | remained robust | remained robust | –
3-methyl-1-propylpyridinium bis(trifluoromethylsulfonyl)imide [Example 12] | 97.1 | – | – | – | – | –
1-butyl-3-methylpyrrolidinium bis(trifluoromethylsulfonyl)imide [Example 15] | – | – | – | remained robust | remained robust | –
1-butyl-3-methylimidazolium 1,1,2,3,3,3-hexafluoropropanesulfonate [Example 11] | 30.1 | – | – | – | – | 31.9
1-butyl-3-methylimidazolium 2-(1,2,2,2-tetrafluoroethoxy)-1,1,2,2-tetrafluoroethanesulfonate [Example 13] | 42.8 | – | – | – | – | –
tetradecyl(tri-n-hexyl)phosphonium 1,1,2-trifluoro-2-(perfluoroethoxy)ethanesulfonate [Example 2] | 78.4 | – | – | – | – | –
1-butyl-3-methylimidazolium 1,1,2-trifluoro-2-(trifluoromethoxy)ethanesulfonate [Example 10] | 37.1 | – | – | – | – | –
CCCCn1cc[n+](C)c1.F[P-](F)(F)(F)(F)F [Example 7, 1-butyl-3-methylimidazolium hexafluorophosphate] | 48.2 | – | – | – | – | –
